This is an account of results in US9701664B2, “Fused 1,4-dihydrodioxin derivatives as inhibitors of heat shock transcription factor 1” (Cancer Research Technology Limited, priority 2013, dated 2017).

The first assay deals with HSP72 in SK-OV-3 cells. Nature of the assay: Cell-based ELISA (Cellisa) assay, SK-OV-3 cells: inhibition of 17-AAG-induced HSP72. The following applies: Homo sapiens; SK-OV-3 cells (Examples 169-218). The method, then: U2OS cells (5-8×10^4 cells/mL) or SK-OV-3 cells (5-8×10^4 cells/mL) were seeded into 96-well plates and incubated at 37° C. for 48 h. Compounds were then added at a range of concentrations and incubated for 1 h before addition of 17-AAG (250 nM). Cells were then incubated for 18 h. The medium was removed washed 2× with PBS and cells were then fixed with fixing solution (4% paraformaldehyde, 0.3% TritonX-100 in PBS) for 30 min at 4° C. The plates were then washed 2× with PBS before blocking with 5% milk for 30 min at 37° C. After washing the plates 4× with 0.1% Tween-20/deionised water, HSP72 antibody (SPA-810, Enzo Life) was added for 1.5 h at 37° C. Following 4× washes, the plates were incubated with europium-labelled anti-mouse antibody (0.6 ug/ml) in Delfia assay buffer (Perkin Elmer) for 1 h at 37° C. After washing the plates, Delfia enhancement solution was added, shaken for 10 min before reading in the Envision plate reader (Perkin-Elmer) with excitation at 340 nm and emission at 615 nm. The plates were washed again before protein determination using the bicinchoninic acid assay (BCA assay, Pierce Biotechnology). The europium counts were normalised for the amount of protein in each well. The 50% inhibitory concentration value of the compound was then calculated.
(In general: ELISA stands for enzyme-linked immunosorbent assay.)
Turning to `CCN1CCN(Cc2ccc3cc(C(=O)Nc4cc(NC(=O)c5ccc6c(c5)OCCO6)ccc4F)ccc3n2)CC1` [Example 169, N-(5-(2,3-dihydrobenzo[b][1,4]dioxine-6-carboxamido)-2-fluorophenyl)-2-((4-ethylpiperazin-1-yl)methyl)quinoline-6-carboxamide], the IC50 was 56 nM. The molecule `CCN1CCN(Cc2ccc3cc(C(=O)Nc4cc(NC(=O)c5ccc6c(c5)OCCO6)ccc4Br)ccc3n2)CC1` [Example 215, N-(2-bromo-5-(2,3-dihydrobenzo[b][1,4]dioxine-6-carboxamido)phenyl)-2-((4-ethylpiperazin-1-yl)methyl)quinoline-6-carboxamide] gave an IC50 of 39 nM. The IC50 values of the last two molecules are within 1.5-fold of each other. `CCN1CCN(Cc2ccc3cc(C(=O)Nc4cc(NC(=O)c5ccc6c(c5)OCCO6)ccc4C)ccc3n2)CC1` [Example 204, N-(5-(2,3-dihydrobenzo[b][1,4]dioxine-6-carboxamido)-2-methylphenyl)-2-((4-ethylpiperazin-1-yl)methyl)quinoline-6-carboxamide] returned an IC50 of 56 nM.

Consider `COC1CCN(Cc2ccc3cc(C(=O)Nc4cc(NC(=O)c5ccc6c(c5)OCCO6)ccc4C)ccc3n2)C1` (stereo not drawn) [Example 208, N-(5-(2,3-dihydrobenzo[b][1,4]dioxine-6-carboxamido)-2-methylphenyl)-2-((3-methoxypyrrolidin-1-yl)methyl)quinoline-6-carboxamide], for which the midpoint of inhibition, the IC50, lay at 53 nM. On the same count and under the same terms, under `O=C(Nc1ccc(F)c(NC(=O)c2ccc3nc(OCCN4CCCC4)ccc3c2)c1)c1ccc2c(c1)OCCO2` [Example 188, N-(5-(2,3-dihydrobenzo[b][1,4]dioxine-6-carboxamido)-2-fluorophenyl)-2-(2-(pyrrolidin-1-yl)ethoxy)quinoline-6-carboxamide] stands 57 nM.

Regarding `CCN1CCCN(Cc2ccc3cc(C(=O)Nc4cc(NC(=O)c5ccc6c(c5)OCCO6)ccc4F)ccc3n2)CC1` [Example 184, N-(5-(2,3-dihydrobenzo[b][1,4]dioxine-6-carboxamido)-2-fluorophenyl)-2-((4-ethyl-1,4-diazepan-1-yl)methyl)quinoline-6-carboxamide], 60 nM corresponded to half-maximal inhibition (IC50). The same measure, in the same setting: for `O=C(Nc1ccc(Cl)c(NC(=O)c2ccc3nc(OCCN4CCCC4)ccc3c2)c1)c1ccc2c(c1)OCCO2` [Example 211, N-(2-chloro-5-(2,3-dihydrobenzo[b][1,4]dioxine-6-carboxamido)phenyl)-2-(2-(pyrrolidin-1-yl)ethoxy)quinoline-6-carboxamide] the value was 73 nM. Molecule `Cc1ccc(NC(=O)c2ccc3c(c2)OCCO3)cc1NC(=O)c1ccc2nc(CN3CCN(C(C)C)CC3)ccc2c1` [Example 202, N-(5-(2,3-dihydrobenzo[b][1,4]dioxine-6-carboxamido)-2-methylphenyl)-2-((4-isopropylpiperazin-1-yl)methyl)quinoline-6-carboxamide] registered an IC50 of 61 nM. For the molecule `CC1(C)CN(Cc2ccc3cc(C(=O)Nc4cc(NC(=O)c5ccc6c(c5)OCCO6)ccc4Cl)ccc3n2)C1` [Example 201, N-(2-chloro-5-(2,3-dihydrobenzo[b][1,4]dioxine-6-carboxamido)phenyl)-2-((3,3-dimethylazetidin-1-yl)methyl)quinoline-6-carboxamide], the IC50 was 83 nM.

In turn, `O=C(Nc1ccc(Cl)c(NC(=O)c2ccc3nc(CN4CCNCC4)ccc3c2)c1)c1ccc2c(c1)OCCO2` [Example 192, N-(2-chloro-5-(2,3-dihydrobenzo[b][1,4]dioxine-6-carboxamido)phenyl)-2-(piperazin-1-ylmethyl)quinoline-6-carboxamide] yielded an IC50 of 128 nM. For `C[C@@H]1CCCN1Cc1ccc2cc(C(=O)Nc3cc(NC(=O)c4ccc5c(c4)OCCO5)ccc3F)ccc2n1` [Example 176, (R)—N-(5-(2,3-dihydrobenzo[b][1,4]dioxine-6-carboxamido)-2-fluorophenyl)-2-((2-methylpyrrolidin-1-yl)methyl)quinoline-6-carboxamide], the midpoint of inhibition, the IC50, lay at 313 nM. Compared with the last molecule, the IC50 is about 2.4-fold higher. With `O=C(Nc1ccc(Cl)c(NC(=O)c2ccc3nc(OCCCN4CCCCC4)ccc3c2)c1)c1ccc2c(c1)OCCO2` [Example 189, N-(2-chloro-5-(2,3-dihydrobenzo[b][1,4]dioxine-6-carboxamido)phenyl)-2-(3-(piperidin-1-yl)propoxy)quinoline-6-carboxamide], the IC50 turned out to be 27 nM. On the same count and under the same terms, under `CCN1CCN(C(C)c2ccc3cc(C(=O)Nc4cc(NC(=O)c5ccc6c(c5)OCCO6)ccc4F)ccc3n2)CC1` (stereo not drawn) [Example 214, N-(5-(2,3-dihydrobenzo[b][1,4]dioxine-6-carboxamido)-2-fluorophenyl)-2-(1-(4-ethylpiperazin-1-yl)ethyl)quinoline-6-carboxamide] stands 957 nM. Still for that read-out and setting: under `Cc1ccc(NC(=O)c2ccc3c(c2)OCCO3)cc1NC(=O)c1ccc2nc(CN3CCCC3C)ccc2c1` (stereo not drawn) [Example 205, N-(5-(2,3-dihydrobenzo[b][1,4]dioxine-6-carboxamido)-2-methylphenyl)-2-((2-methylpyrrolidin-1-yl)methyl)quinoline-6-carboxamide] stands 65 nM; under `CC(C)N1CCN(Cc2ccc3cc(C(=O)Nc4cc(NC(=O)c5ccc6c(c5)OCCO6)ccc4F)ccc3n2)CC1` [Example 185, N-(5-(2,3-dihydrobenzo[b][1,4]dioxine-6-carboxamido)-2-fluorophenyl)-2-((4-isopropylpiperazin-1-yl)methyl)quinoline-6-carboxamide], 137 nM. On to `Cc1ccc(NC(=O)c2ccc3c(c2)OCCO3)cc1NC(=O)c1ccc2nc(CN3CCCCC3)ccc2c1` [Example 209, N-(5-(2,3-dihydrobenzo[b][1,4]dioxine-6-carboxamido)-2-methylphenyl)-2-(piperidin-1-ylmethyl)quinoline-6-carboxamide], for which the half-inhibitory concentration (IC50) was 208 nM.

Turning to `CCN1CCN(Cc2ccc3cc(C(=O)Nc4cc(NC(=O)c5ccc6c(c5)OCCO6)ccc4F)ccc3n2)[C@@H](C)C1` [Example 213, (S)—N-(5-(2,3-dihydrobenzo[b][1,4]dioxine-6-carboxamido)-2-fluorophenyl)-2-((4-ethyl-2-methylpiperazin-1-yl)methyl)quinoline-6-carboxamide], the IC50 worked out at 57 nM.

The molecule `CC1CCCN1Cc1ccc2cc(C(=O)Nc3cc(NC(=O)c4ccc5c(c4)OCCO5)ccc3F)ccc2n1` (racemic) [Example 190, (rac)-N-(5-(2,3-dihydrobenzo[b][1,4]dioxine-6-carboxamido)-2-fluorophenyl)-2-((2-methylpyrrolidin-1-yl)methyl)quinoline-6-carboxamide] displayed an IC50 of 267 nM.

`Cc1ccc(NC(=O)c2ccc3c(c2)OCCO3)cc1NC(=O)c1ccc2nc(CN3CC[C@H](F)C3)ccc2c1` [Example 207, (S)—N-(5-(2,3-dihydrobenzo[b][1,4]dioxine-6-carboxamido)-2-methylphenyl)-2-((3-fluoropyrrolidin-1-yl)methyl)quinoline-6-carboxamide] gave an IC50 of 80 nM.

As to `O=C(Nc1ccc(F)c(NC(=O)c2ccc3nc(CN4CCC4)ccc3c2)c1)c1ccc2c(c1)OCCO2` [Example 171, 2-(azetidin-1-ylmethyl)-N-(5-(2,3-dihydrobenzo[b][1,4]dioxine-6-carboxamido)-2-fluorophenyl)quinoline-6-carboxamide], the IC50 amounted to 450 nM. `O=C(Nc1ccc(Cl)c(NC(=O)c2ccc3nc(CN4CCCC4)ccc3c2)c1)c1ccc2c(c1)OCCO2` [Example 198, N-(2-chloro-5-(2,3-dihydrobenzo[b][1,4]dioxine-6-carboxamido)phenyl)-2-(pyrrolidin-1-ylmethyl)quinoline-6-carboxamide] showed an IC50 of 173 nM.

Take `O=C(Nc1ccc(F)c(NC(=O)c2ccc3nc(CN4CCCCC4)ccc3c2)c1)c1ccc2c(c1)OCCO2` [Example 172, N-(5-(2,3-dihydrobenzo[b][1,4]dioxine-6-carboxamido)-2-fluorophenyl)-2-(piperidin-1-ylmethyl)quinoline-6-carboxamide]: the IC50 turned out to be 675 nM. This IC50 is about 3.9-fold higher than that of the molecule before.

`CC(C)(C)N1CCN(Cc2ccc3cc(C(=O)Nc4cc(NC(=O)c5ccc6c(c5)OCCO6)ccc4Cl)ccc3n2)CC1` [Example 191, 2-((4-(tert-butyl)piperazin-1-yl)methyl)-N-(2-chloro-5-(2,3 dihydrobenzo[b][1,4]dioxine-6-carboxamido)phenyl)quinoline-6-carboxamide] registered an IC50 of 134 nM. Molecule `C=Cc1ccc(NC(=O)c2ccc3c(c2)OCCO3)cc1NC(=O)c1ccc2nc(C)ccc2c1` [Example 210, N-(5-(2,3-dihydrobenzo[b][1,4]dioxine-6-carboxamido)-2-vinylphenyl)-2-methylquinoline-6-carboxamide] showed an IC50 of 419 nM. On the same count and under the same terms, for `CC1CN(Cc2ccc3cc(C(=O)Nc4cc(NC(=O)c5ccc6c(c5)OCCO6)ccc4F)ccc3n2)C1` [Example 182, N-(5-(2,3-dihydrobenzo[b][1,4]dioxine-6-carboxamido)-2-fluorophenyl)-2-((3-methylazetidin-1-yl)methyl)quinoline-6-carboxamide] the value was 232 nM.

The assay is the same for the next values; noted with them: SK-OV-3 cells (Examples 169-218).
Consider “2-((4-(sec-butyl)piperazin-111)methyl)-N-(2-chloro-5-(2,3-dihydrobenzo[b][1,4]dioxine-6-carboxamido)phenyl)quinoline-6-carboxamide [Example 193]”, for which the IC50 was 66 nM. For “2-((4-(tert-butyl)piperazin-111)methyl)-N-(5-(2,3-dihydrobenzo[b][1,4]dioxine-6-carboxamido)-2-fluorophenyl)quinoline-6-carboxamide [Example 177]”, the IC50 came out at 70 nM.

The term IC50 denotes the point on the concentration scale where inhibition reaches its midpoint. A high value points to weaker potency in that assay.
